The source of these data is the METLIN SMRT retention time set (Domingo-Almenara et al. 2019).

SMILES strings stand for the structures.

The data set is described as follows: gradient 5% acetonitrile 3 min, to 50% in 2 min, to 85% in 15 min, held 3 min, 100 µL/min. To be noted: column: Zorbax Extend-C18 2.1 x 50 mm; eluents: water / acetonitrile, 0.1% formic acid. In a few lines: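 Standards, all pure, were combined into mixtures of ~100 molecules and run at 100 μL/min on a Zorbax Extend-C18 column (2.1 × 50 mm, 1.8 μm) with water and acetonitrile, each containing 0.1% formic acid. A coupled quadrupole time-of-flight mass spectrometer operated in positive and negative ionization mode. Retention time values come from computationally picked adduct peaks, each inspected manually.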
`CCc1nnc(-c2ccc3ccn(CC(=O)NCc4ccccc4)c3c2)o1`: the RP-LC retention time was 1300 s.
Take `Cc1cc2[nH]c(C(=O)Nc3cc(Cl)ccc3F)c(CN3CCOCC3)c2s1`: the RP-LC retention time was found to be 892 s.
For `COC(=O)C1=C(C)N(C2CCCC2)C(=O)C1(NC(=O)c1cccc(OC)c1)C(F)(F)F` (stereo not drawn) the value was 1010 s; for `COc1ccc(NC(=O)Nc2c(-c3ccc(F)cc3)nc3ccccn23)cc1OC`, 629 s; for `Cc1ccc(C(=O)N2CCN(c3ccc(=O)n(-c4cccc(Cl)c4)n3)CC2)s1`, 891 s.
For `O=C(NCC1CC1)C1CCN(C(=O)c2ncn3c2COC(c2ccc(Cl)cc2)C3)CC1` (stereo not drawn) the value was 758 s; for `Cc1ccc(NC(=O)Cn2nc(N(C)C)c3ccccc3c2=O)cc1F`, 920 s.
For `Cc1cc(C)cc(NC(=O)C2CCCN2S(=O)(=O)c2cc3c(cc2C)NC(=O)CO3)c1` (stereo not drawn) the value was 815 s; for `Cc1nn(-c2ccccc2)c(C)c1CCc1nn2c(-c3ccccc3F)nnc2s1`, 865 s.
The molecule `O=C(NCCN1CCCCCC1)C1CCN(c2nc3cccnc3s2)CC1` registered an RP-LC retention time of 598 s.
For `COc1ccc(OCc2noc(CNC(=O)NCc3cccs3)n2)cc1` the value was 737 s; for `O=C(Cn1ncccc1=O)Nc1nccs1`, 554 s; for `CC(C)CCNC(=O)C1CCCN(c2cc(=O)n(C)c(=O)n2C)C1` (stereo not drawn), 677 s.
For `Cc1ccc(-c2csc(-c3cccn3CC(=O)N(C)Cc3ccco3)n2)cc1` the value was 1170 s.
For `O=C(NCc1ccc(OC(F)(F)F)cc1)C1CCCN(c2nnc3ccccn23)C1` (stereo not drawn) the value was 727 s; for `Cc1ccc(C(O)CN2CCN(c3ccccn3)CC2)cc1` (stereo not drawn), 550 s; for `O=C(Nc1cccn2ncnc12)c1ccc(Cl)s1`, 820 s.
On to `O=C(NCc1cccc(F)c1)c1ccc(-c2cccs2)nc1`, for which the RP-LC retention time was 894 s.
For `CCCCOc1ccc(NC(=O)c2cc(=O)c3cc(Cl)c(C)cc3o2)c2cccnc12` the value was 824 s.
As for `Cc1ccc(C)c(-c2coc(-c3ccc(N)cc3)n2)c1`, the RP-LC retention time stood at 1060 s.
For `NC(=O)C1CCN(c2nc3ccccc3nc2S(=O)(=O)Cc2ccc(Cl)cc2)CC1` the value was 876 s.
For `O=c1c2cnn(-c3ccc(F)cc3)c2ncn1Cc1nc(-c2cccc(Br)c2)no1` the value was 1130 s.
`CS(=O)(=O)N1CCCC(C(=O)Nc2nc3cc4c(cc3s2)OCCO4)C1` (stereo not drawn) returned an RP-LC retention time of 707 s.
For `CCOc1cccc(C2c3[nH]c4ccccc4c3CCN2C(=O)c2ccnn2C)c1` (stereo not drawn) the value was 1050 s.
In turn, `Cc1nc(C(=O)Nc2ccc(Cl)cc2)c(C)o1` came in with an RP-LC retention time of 901 s.
`CS(=O)(=O)N1CC(F)(F)C[C@H]1c1nc(-c2ccncc2)no1`: the RP-LC retention time was determined as 693 s.
For `COc1ccc(-c2csc3c(=O)n(CC(=O)OC(C)(C)C)cnc23)cc1` the value was 1180 s; for `Cc1ccc(Nc2nc(C)cc(N3CCN(C(=O)C4CCCCC4)CC3)n2)cc1`, 734 s.
For `CCn1cnc(S(=O)(=O)N2CCC(C(=O)Nc3cc(C)ccc3C)CC2)c1` the value was 719 s; for `O=C(N[C@@H]1CN(c2ccncn2)C[C@H]1CO)c1ccc2c(c1)OCO2`, 578 s; for `COc1ccc(C)cc1NC(=O)C1CC(=O)N(c2n[nH]c3ccccc23)C1` (stereo not drawn), 755 s.
For `Cn1nc(C(=O)N2CCCC(C(=O)Nc3ccccc3)C2)c2c1CCN(C(=O)C1CCCCC1)C2` (stereo not drawn) the value was 796 s; for `O=S(=O)(c1ccc(-c2cnc(C3CCC3)o2)s1)N1CCN(c2ccccn2)CC1`, 767 s.
